Where “and” joins values, the source holds several entries; their conditions need not be identical. Equal values may be shown once. Read-outs that look alike come from different tables or passages of the source. Marks after values point to notes of the source that are not given here.
Experiment: Plasma concentration after intravaginal administration of vaginal ring
Type: in vivo, Cynomolgus monkeys
Experimental: The study was performed in four single dose phases with 28-day sampling period after Phases 1 and 2 (7-day washout period between doses). Vaginal rings were investigated for Pritelivir free base and Pritelivir mesylate salt at two dose levels per formulation. The test items were applied as vaginal ring in Phases 1 and 2 to female monkeys. The study design is below in the Table 3.
Venous blood samples were taken from all animals at the following times in relation to dosing.
• Blood sample site Femoral site • Blood volume 1.0 mL • Anticoagulant For phase 1 samples, Day 1-3 only, blood was sampled into standard HLS vials containing lithium heparin and 20 μL aqueous phosphoric acid (3.5 molar). Thereafter, blood was collected into tubes containing lithium heparin only. Plasma was obtained from all samples by centrifugation. Samples were appropriately labeled and stored deep frozen (−20° C. or below) until analysis • Total no. of blood samples 350 Vaginal Fluid Sampling
After suitable dilution, plasma and vaginal samples were analyzed on UPLC system Waters Acquity UPLC-HSS PFP column with 1.8 μm particles (100×2.1 mm) by gradient elution using 0.1% formic acid and methanol containing 0.1% formic acid. For detection, a time-of-flight mass spectrometer (Xevo GS-2 QTOF, Waters) was used operating in positive ionization mode (MSe analysis). The samples were analyzed for their content of Pritelivir free base.
The study was designed to obtain information on the time-course of unchanged test compound concentrations in plasma and vaginal fluid/tissue, following single intravaginal administration of rings to female Cynomolgus monkeys. Objectives of this study were to determine the safety and tolerance of Pritelivir loaded rings, as well as systemic and local exposure (plasma, vaginal fluid and vaginal and vulval tissue, respectively). Local exposures were compared with in vitro efficacy data of Pritelivir to get an idea on initial pharmacokinetic/pharmacodynamic (PK/PD) parameters for vaginal rings, i.e. to assess the potential ability of a Pritelivir loaded ring to suppress viral replication in the target tissue. Table 9 gives an overview on the EC50 values of Pritelivir on HSV-1 and HSV-2 Data source: Field, H. J., et al., Baseline sensitivity of HSV-1 and HSV-2 clinical isolates and defined acyclovir-resistant strains to the helicase-primase inhibitor pritelivir. Antiviral Res, 2013. 100(2): p. 297-9. EC50=50% effective concentration.

[1] = female, cynomolgus monkey, plasma, other: intravaginal (vaginal ring), 40 mg, ring 40 mg free base, Phase 1 Group 1, group mean, read-out: Plasma concentration of Pritelivir free base, Mean
[2] = female, cynomolgus monkey, plasma, other: intravaginal (vaginal ring), 40 mg, ring 40 mg free base, Phase 1 Group 1, individual animals, read-out: Plasma concentration of Pritelivir free base
[3] = female, cynomolgus monkey, plasma, other: intravaginal (vaginal ring), 240 mg, ring 240 mg free base, Phase 2 Group 1, group mean, read-out: Plasma concentration of Pritelivir free base, Mean
[4] = female, cynomolgus monkey, plasma, other: intravaginal (vaginal ring), 240 mg, ring 240 mg free base, Phase 2 Group 1, individual animals, read-out: Plasma concentration of Pritelivir free base

Cc1nc(N(C)C(=O)Cc2ccc(-c3ccccn3)cc2)sc1S(N)(=O)=O [Pritelivir free base]
All plasma concentrations of Pritelivir (Phases 1 and 2, up to 28 Days, all rings): < 132 nM and < 54 μg/L
concentration at 0.0417 d (female, cynomolgus monkey, plasma, other: intravaginal (vaginal ring), 40 mg, ring 40 mg free base, Phase 1 Group 1, 0.0417 d, group mean, read-out: Plasma concentration of Pritelivir free base, Mean): 3.43 ng/mL
concentration at 0.0417 d (female, cynomolgus monkey, plasma, other: intravaginal (vaginal ring), 40 mg, ring 40 mg free base, Phase 1 Group 1, 0.0417 d, individual animals, read-out: Plasma concentration of Pritelivir free base): 2.44 ng/mL
concentration at 0.167 d [1]: 5.61 ng/mL
concentration at 0.167 d [2]: 2.38 ng/mL
concentration at 0.333 d [1]: 6.4 ng/mL
concentration at 0.333 d [2]: 2.22 ng/mL
concentration at 4 d [1]: 3.86 ng/mL
concentration at 4 d [2]: 3.21 ng/mL
concentration at 7 d [1]: 3.66 ng/mL
concentration at 7 d [2]: 3.55 ng/mL
concentration at 10 d [1]: 3.36 ng/mL
concentration at 10 d [2]: 3.92 ng/mL
concentration at 14 d [1]: 3.31 ng/mL
concentration at 14 d [2]: 2.81 ng/mL
concentration at 17 d [1]: 3.2 ng/mL
concentration at 17 d [2]: 2.64 ng/mL
concentration at 21 d [1]: 2.91 ng/mL
concentration at 21 d [2]: 3 ng/mL
concentration at 24 d [1]: 2.99 ng/mL
concentration at 24 d [2]: 3.21 ng/mL
concentration at 28 d [1]: 2.79 ng/mL
concentration at 28 d [2]: 2.6 ng/mL
concentration at 0.0833 d (female, cynomolgus monkey, plasma, other: intravaginal (vaginal ring), 240 mg, ring 240 mg free base, Phase 2 Group 1, 0.0833 d, group mean, read-out: Plasma concentration of Pritelivir free base, Mean): 3.68 ng/mL
concentration at 0.0833 d (female, cynomolgus monkey, plasma, other: intravaginal (vaginal ring), 240 mg, ring 240 mg free base, Phase 2 Group 1, 0.0833 d, individual animals, read-out: Plasma concentration of Pritelivir free base): 4.41 ng/mL
concentration at 0.167 d [3]: 4.58 ng/mL
concentration at 0.333 d [3]: 5.87 ng/mL
concentration at 3 d (female, cynomolgus monkey, plasma, other: intravaginal (vaginal ring), 240 mg, ring 240 mg free base, Phase 2 Group 1, 3 d, individual animals, read-out: Plasma concentration of Pritelivir free base): 26.8 ng/mL
concentration at 4 d [4]: 26 ng/mL
concentration at 7 d [4]: 16.4 ng/mL
concentration at 10 d [4]: 9.46 ng/mL
concentration at 14 d [4]: 9.48 ng/mL
concentration at 17 d [4]: 10.8 ng/mL
concentration at 21 d [4]: 7.78 ng/mL
concentration at 24 d [4]: 9.71 ng/mL
concentration at 28 d [4]: 12.7 ng/mL
Plasma concentration of Pritelivir free base (ring 40 mg free base, Phase 1 Group 1, 0 d (pre-dose), individual animals): 2.70 ^a μg/L
Plasma concentration of Pritelivir free base (ring 40 mg free base, Phase 1 Group 1, 0.0417 d, individual animals): 4.73 ^ μg/L and 3.11 ^a μg/L
Plasma concentration of Pritelivir free base, Mean (ring 40 mg free base, Phase 1 Group 1, 0.0833 d, group mean): 5.28 ^ μg/L
